Test: xn = mol fraction of the nth substance listed
Conditions: 100 kPa

`CCCC[n+]1ccn(C)c1.F[P-](F)(F)(F)(F)F` + C[n+]1ccn(CCC(F)(F)C(F)(F)F)c1.F[P-](F)(F)(F)(F)F gave a viscosity (293.2 K, x1 = 1) of 343 mPa·s, a viscosity (308.19 K, x1 = 1) of 144 mPa·s and a viscosity (338.16 K, x1 = 1) of 39.5 mPa·s. It also gave a viscosity (368.13 K, x1 = 1) of 16.34 mPa·s.

For `C[n+]1ccn(CCC(F)(F)C(F)(F)F)c1.F[P-](F)(F)(F)(F)F` + CCCC[n+]1ccn(C)c1.F[P-](F)(F)(F)(F)F, the viscosity (293.2 K, x2 = 0.91) was 430 mPa·s, the viscosity (293.2 K, x2 = 0.972) was 370 mPa·s and the viscosity (308.19 K, x2 = 0.91) was 171 mPa·s. For the same compound, the viscosity (308.19 K, x2 = 0.972) was 153 mPa·s, the viscosity (338.16 K, x2 = 0.91) was 46.2 mPa·s and the viscosity (368.13 K, x2 = 0.91) was 17.6 mPa·s. For the same compound, the viscosity (368.13 K, x2 = 0.972) was 16.38 mPa·s.
